Key:
MA4377 (full-length) = molecular target: T1, MA4377 (full-length) (Methanosarcina acetivorans, UniProt Q8THY1); assay: fluorescence titration with TNP-ATP; format: binding; settings: fluorescent ATP analogue; kinase buffer pH 8, 5 mM MgCl2; 541 nm emission
T1 construct: gene MA_4377
T1 sequence (Q8THY1 1-1028): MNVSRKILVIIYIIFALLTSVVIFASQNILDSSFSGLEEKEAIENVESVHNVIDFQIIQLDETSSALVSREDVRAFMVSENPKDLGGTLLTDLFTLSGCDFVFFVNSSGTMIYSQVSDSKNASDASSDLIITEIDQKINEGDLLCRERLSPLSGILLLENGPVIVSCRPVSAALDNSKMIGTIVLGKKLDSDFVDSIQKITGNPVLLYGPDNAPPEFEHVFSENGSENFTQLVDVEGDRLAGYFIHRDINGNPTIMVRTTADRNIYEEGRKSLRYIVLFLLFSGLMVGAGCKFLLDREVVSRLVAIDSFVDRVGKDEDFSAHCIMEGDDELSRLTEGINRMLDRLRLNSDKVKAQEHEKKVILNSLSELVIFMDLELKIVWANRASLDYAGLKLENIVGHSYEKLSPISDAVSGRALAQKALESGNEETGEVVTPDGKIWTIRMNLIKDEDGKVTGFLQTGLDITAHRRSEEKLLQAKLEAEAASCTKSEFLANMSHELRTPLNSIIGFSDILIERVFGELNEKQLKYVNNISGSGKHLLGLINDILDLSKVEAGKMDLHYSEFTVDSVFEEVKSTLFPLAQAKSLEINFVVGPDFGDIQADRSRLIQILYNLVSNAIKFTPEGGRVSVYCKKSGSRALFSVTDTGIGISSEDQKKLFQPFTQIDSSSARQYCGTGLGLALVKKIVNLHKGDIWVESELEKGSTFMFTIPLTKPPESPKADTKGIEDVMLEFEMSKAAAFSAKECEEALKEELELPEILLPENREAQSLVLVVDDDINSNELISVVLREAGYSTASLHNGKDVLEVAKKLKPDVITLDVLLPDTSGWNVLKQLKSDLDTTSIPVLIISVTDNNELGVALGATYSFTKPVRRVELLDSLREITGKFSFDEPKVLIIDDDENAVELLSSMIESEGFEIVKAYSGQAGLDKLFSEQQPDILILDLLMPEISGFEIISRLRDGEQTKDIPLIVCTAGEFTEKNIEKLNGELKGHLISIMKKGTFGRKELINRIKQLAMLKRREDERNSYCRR

MA2082 = molecular target: T2, MA2082 (Methanosarcina acetivorans, UniProt Q8TP40); assay: fluorescence titration with TNP-ATP; format: binding; settings: fluorescent ATP analogue; kinase buffer pH 8, 5 mM MgCl2; 541 nm emission
T2 construct: gene MA_2082
T2 sequence (Q8TP40 1-698): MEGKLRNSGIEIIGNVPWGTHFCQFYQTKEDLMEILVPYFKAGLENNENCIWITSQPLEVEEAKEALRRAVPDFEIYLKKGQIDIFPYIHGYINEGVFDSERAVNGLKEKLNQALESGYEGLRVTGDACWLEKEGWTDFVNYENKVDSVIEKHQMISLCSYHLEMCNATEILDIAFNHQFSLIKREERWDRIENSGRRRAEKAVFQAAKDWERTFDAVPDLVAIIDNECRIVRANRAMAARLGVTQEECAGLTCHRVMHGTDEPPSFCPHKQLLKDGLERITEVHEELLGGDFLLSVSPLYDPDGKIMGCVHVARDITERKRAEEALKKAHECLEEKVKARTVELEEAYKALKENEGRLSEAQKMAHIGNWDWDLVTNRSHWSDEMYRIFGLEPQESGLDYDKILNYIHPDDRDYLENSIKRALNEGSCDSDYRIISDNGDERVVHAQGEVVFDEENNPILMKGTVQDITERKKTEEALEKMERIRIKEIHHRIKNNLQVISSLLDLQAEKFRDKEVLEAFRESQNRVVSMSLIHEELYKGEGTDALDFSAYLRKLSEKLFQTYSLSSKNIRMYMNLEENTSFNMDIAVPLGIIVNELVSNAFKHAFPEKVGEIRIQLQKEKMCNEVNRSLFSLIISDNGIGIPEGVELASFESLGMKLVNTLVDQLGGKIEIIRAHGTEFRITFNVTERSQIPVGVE

RdmS (MA0863) = molecular target: T3, RdmS (MA0863) (Methanosarcina acetivorans, UniProt Q8TSD5); assay: fluorescence titration with TNP-ATP; format: binding; settings: fluorescent ATP analogue; kinase buffer pH 8, 5 mM MgCl2; 541 nm emission
T3 construct: gene MA_0863
T3 sequence (Q8TSD5 1-749): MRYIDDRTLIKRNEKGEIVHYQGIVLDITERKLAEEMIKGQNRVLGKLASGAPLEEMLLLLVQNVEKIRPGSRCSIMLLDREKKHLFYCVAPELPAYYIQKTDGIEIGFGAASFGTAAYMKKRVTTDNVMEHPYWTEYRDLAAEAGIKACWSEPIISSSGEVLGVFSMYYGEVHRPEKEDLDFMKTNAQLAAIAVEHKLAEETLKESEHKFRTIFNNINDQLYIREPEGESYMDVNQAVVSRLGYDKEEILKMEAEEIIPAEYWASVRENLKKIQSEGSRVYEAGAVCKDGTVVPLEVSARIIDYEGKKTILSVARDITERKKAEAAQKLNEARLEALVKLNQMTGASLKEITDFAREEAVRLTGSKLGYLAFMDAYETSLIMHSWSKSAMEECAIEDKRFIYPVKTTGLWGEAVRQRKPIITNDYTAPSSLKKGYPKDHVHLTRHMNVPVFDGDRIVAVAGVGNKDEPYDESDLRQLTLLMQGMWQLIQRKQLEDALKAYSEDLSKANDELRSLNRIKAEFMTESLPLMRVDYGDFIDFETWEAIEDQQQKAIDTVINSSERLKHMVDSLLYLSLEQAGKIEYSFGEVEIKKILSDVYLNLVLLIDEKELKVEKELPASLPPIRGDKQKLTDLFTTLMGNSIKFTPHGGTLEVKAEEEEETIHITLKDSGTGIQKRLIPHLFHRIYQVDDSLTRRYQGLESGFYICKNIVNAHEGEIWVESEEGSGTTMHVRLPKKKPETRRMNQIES

MA2013 = molecular target: T4, MA2013 (Methanosarcina acetivorans, UniProt Q8TPA1); assay: fluorescence titration with TNP-ATP; format: binding; settings: fluorescent ATP analogue; kinase buffer pH 8, 5 mM MgCl2; 541 nm emission
T4 construct: gene MA_2013
T4 sequence (Q8TPA1 1-1000): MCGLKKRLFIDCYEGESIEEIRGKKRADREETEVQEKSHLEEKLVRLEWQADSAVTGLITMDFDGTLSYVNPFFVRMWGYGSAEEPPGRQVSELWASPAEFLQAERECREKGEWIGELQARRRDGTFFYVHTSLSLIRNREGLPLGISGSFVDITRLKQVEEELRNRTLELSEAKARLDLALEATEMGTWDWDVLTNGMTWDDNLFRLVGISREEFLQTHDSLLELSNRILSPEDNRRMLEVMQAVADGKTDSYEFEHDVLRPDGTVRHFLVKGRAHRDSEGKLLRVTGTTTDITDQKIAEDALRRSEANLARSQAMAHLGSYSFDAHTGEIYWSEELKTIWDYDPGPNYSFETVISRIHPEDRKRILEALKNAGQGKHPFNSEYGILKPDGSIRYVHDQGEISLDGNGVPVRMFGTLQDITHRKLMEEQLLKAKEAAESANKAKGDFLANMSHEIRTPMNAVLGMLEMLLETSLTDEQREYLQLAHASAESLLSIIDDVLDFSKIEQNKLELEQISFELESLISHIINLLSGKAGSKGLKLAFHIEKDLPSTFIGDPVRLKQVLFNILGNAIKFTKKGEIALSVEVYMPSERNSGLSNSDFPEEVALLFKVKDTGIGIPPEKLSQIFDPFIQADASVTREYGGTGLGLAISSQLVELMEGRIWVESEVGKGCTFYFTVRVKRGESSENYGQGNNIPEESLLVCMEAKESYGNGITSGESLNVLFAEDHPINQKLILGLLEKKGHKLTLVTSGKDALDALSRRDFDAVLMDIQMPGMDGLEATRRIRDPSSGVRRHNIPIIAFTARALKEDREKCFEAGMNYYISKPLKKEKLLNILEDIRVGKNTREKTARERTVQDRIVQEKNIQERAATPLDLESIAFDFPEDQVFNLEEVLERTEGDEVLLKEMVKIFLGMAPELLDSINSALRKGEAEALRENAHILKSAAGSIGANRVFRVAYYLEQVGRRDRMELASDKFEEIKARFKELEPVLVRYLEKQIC

PKR1R2 = molecular target: T5, PKR1R2 (Methanosarcina acetivorans, UniProt Q8THY1); assay: fluorescence titration with TNP-ATP; format: binding; settings: fluorescent ATP analogue; kinase buffer pH 8, 5 mM MgCl2; 541 nm emission
T5 construct: gene MA_4377; cytosolic truncation PAS-HK-R1-R2 without CHASE4 and HAMP (membrane) part
T5 sequence (Q8THY1 351-1028 limits assumed): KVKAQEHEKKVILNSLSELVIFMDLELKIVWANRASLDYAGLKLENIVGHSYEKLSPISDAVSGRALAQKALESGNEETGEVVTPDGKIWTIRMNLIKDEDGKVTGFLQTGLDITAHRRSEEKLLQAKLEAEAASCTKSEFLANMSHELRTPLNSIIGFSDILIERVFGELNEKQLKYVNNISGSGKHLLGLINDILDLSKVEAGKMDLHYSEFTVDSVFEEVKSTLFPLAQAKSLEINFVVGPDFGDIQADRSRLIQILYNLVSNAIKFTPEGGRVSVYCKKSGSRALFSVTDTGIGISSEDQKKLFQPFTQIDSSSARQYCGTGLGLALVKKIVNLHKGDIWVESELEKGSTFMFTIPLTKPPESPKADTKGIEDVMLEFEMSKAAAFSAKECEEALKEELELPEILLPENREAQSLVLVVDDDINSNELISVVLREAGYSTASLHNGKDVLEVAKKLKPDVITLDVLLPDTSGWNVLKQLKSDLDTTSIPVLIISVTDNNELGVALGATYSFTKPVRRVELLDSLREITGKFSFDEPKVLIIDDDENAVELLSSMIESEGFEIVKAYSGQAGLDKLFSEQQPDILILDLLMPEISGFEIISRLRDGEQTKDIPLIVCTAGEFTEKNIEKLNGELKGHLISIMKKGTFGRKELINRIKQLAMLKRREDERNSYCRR

PK = molecular target: T6, PK (Methanosarcina acetivorans, UniProt Q8THY1); assay: autophosphorylation, SDS-PAGE autoradiography; format: biochemical; settings: labelled compound ([γ-32P]ATP 3.3 μM) with 200 μM ATP; 10 μM kinase; kinase buffer pH 8, 5 mM MgCl2
T6 construct: gene MA_4377; PAS and HK domains only (no CHASE4, HAMP, R1, R2)
T6 sequence (Q8THY1 351-765 limits assumed): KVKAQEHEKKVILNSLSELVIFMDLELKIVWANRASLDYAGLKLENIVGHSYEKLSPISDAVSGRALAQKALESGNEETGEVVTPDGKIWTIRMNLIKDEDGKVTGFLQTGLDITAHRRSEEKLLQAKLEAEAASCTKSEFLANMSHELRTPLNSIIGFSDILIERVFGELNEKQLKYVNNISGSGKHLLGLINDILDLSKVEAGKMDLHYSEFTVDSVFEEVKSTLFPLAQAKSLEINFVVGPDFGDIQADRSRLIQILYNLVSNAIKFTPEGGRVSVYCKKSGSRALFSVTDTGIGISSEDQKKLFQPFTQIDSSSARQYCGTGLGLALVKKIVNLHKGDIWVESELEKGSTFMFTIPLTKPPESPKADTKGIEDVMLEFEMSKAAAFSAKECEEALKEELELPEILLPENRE

In the case of “2′‐(3′)‐O‐(2,4,6‐trinitrophenyl)‐adenosin 5′‐triphosphat [TNP-ATP]”, the Kd (MA4377 (full-length)) is reported as about 11 µM, the Kd (MA2082) is reported as 29.6 ± 4.4 µM and the Kd (RdmS (MA0863)) is reported as 17 ± 5.7 µM. The Kd (MA2013) was 28.2 ± 1.3 µM and the Kd (PKR1R2) was about 11 µM.
In the case of `Nc1ncnc2c1ncn2[C@@H]1O[C@H](COP(=O)(O)OP(=O)(O)OP(=O)(O)O)[C@@H](O)[C@H]1O` [ATP], the “autophosphorylation, SDS-PAGE autoradiography” value (PK) is reported as “indeed displayed time‐dependent autokinase activity”.
